Like-named read-outs stand apart in the source and are kept apart here.
Key:
[1] = system: Saccharomyces cerevisiae strain 62 expressing PAD1; format: cell-based; details: predicted decarboxylation product in headspace; weak acid 0.5 mM, YEPD pH 4, 10 h at 28° C.; 0 = no decarboxylation
Protocol: S. cerevisiae strain 62 (which expresses the PAD1 gene) was cultured for 48 hr in YEPD pH 4, Yeast extract 10 g, Peptone 20 g, Glucose 20 g, at 28° C. in a shake flask, 120 rpm. The stationary-phase cells were inoculated into capped 28 ml McCartney bottles containing 10 mls YEPD pH 4, at 1 million cells per ml. Each bottle also contained one of 70 substrate weak acids at 0.5 mM. Tubes were then shaken for 10 h at 28° C.
1 ml samples of the headspace were passed into stainless-steel thermal desorption tubes, followed by a 10 ml air flush. (Desorption tubes—89 mm×5 mm ID, packed with 200 mg Tenax TA 60-80 mesh, Phase Separations, UK).
Thermal desorption tubes were placed in a Perkin Elmer ATD400 thermal desorption system, and the volatiles transferred to the Gas Chromatograph in a 2 stage process. Primary desorption was 250° C. for 10 min with a helium flow of […]. Using a split ratio of 1:1, volatiles were retained on a cold trap (25 mg Tenax TA) held at −30° C. Secondary desorption was carried out by rapidly heating and holding the cold trap at 250° C. for 2 min, with a helium flow of 20 ml/min and split ratio of 19:1. A DB624 column {30 m×0.32 mm, 1.8 microns film thickness} installed in a Carbo Erba GC800 was used to achieve separation and introduction of the volatile to the mass spectrometer. The column temperature was held at 40° C. for 2 min then increased at 5° C./min to 250° C. The column outlet was coupled via a heated transfer line at 250° C. into the ion source of the mass spectrometer operated at 70 eV in electron ionization (EI) mode. The source temperature was at 200° C. and the detector photomultiplier at 500V. Full scan MS data acquisition was carried out from m/z 30 to 300, with 0.6 sec scan and 0.05 sec inter scan delay.
The results are shown in Table 3, in each case the “predicted product” being the product which would be produced if decarboxylation of the weak acid were to take place.

[2] = cited from earlier work
[3] = system: S. cerevisiae BY4741 (PAD1) and S. cerevisiae YO5833 (Δ pad1); assay: Selection of PAD1-gene containing yeast in broth culture by weak acid; format: cell-based, Saccharomyces cerevisiae; details: buffered YEPD pH 4.0, 14 days at 25° C., growth by OD 600 nm
Protocol: Flasks were cultured at 25° C. for 14 days, shaken at 120 rpm on an orbital shaker (25 mm orbit). After 14 days, yeast growth was measured by spectrophotometer at 600 nm (Optical Density, OD 600 nm).
Yeast strains S. cerevisiae BY4741 (PAD1) and S. cerevisiae YO5833—Euroscarf (Δ pad1) were separately inoculated at 10^3 cells/ml into 100 ml conical flasks containing 50 mls buffered YEPD pH 4.0 (glycerol 20 g/l, Bacteriological peptone 20 g/l, yeast extract 10 g/l, succinic acid 3 g/l, adjusted to pH 4.0 with potassium hydroxide) each containing higher concentrations of 4-Methylcinnamic acid, 0-0.11 mM. Flasks were cultured for 14 days at 25° C., shaken at 160 rpm on an orbital shaker (25 mm orbit). After 14 days, yeast growth was measured by spectrophotometer at 600 nm (Optical Density, OD 600 nm).

[4] = system: S. cerevisiae BY4741 (PAD1); assay: Selection in agar, growth of PAD1-containing yeast; format: cell-based, Saccharomyces cerevisiae; details: 4-Methylcinnamic acid 0.096 mM in agar, pH 4.0, 10 days at 25° C.
Protocol: (§1) Buffered YEPD containing 4-Methylcinnamic acid, was prepared as follows: glycerol 20 g/l, Bacteriological peptone 20 g/l, yeast extract […], agar 15 g/l, succinic acid 3 g/l, 4-Methylcinnamic acid 15.55 mg/l (0.096 mM). Agar was sterilised by autoclaving at pH 6.0, cooled to 50° C., adjusted to pH 4.0, then poured into Petri dishes and allowed to set. Agar plates were spread with dilute cultures of S. cerevisiae BY4741 (PAD1) (upper half of plate—FIG. 8), and dilute cultures of S. cerevisiae YO5833—Euroscarf (Δ pad1) on the lower half of the plate.

[5] = system: S. cerevisiae YO5833 (Δ pad1); assay: Selection in agar, growth of Δ pad1 yeast; format: cell-based, Saccharomyces cerevisiae; details: 4-Methylcinnamic acid 0.096 mM in agar, pH 4.0, 10 days at 25° C.
Protocol: as §1

[6] = system: decarboxylase from mould spores; details: 1 mM sorbic acid, equimolar 1,3-pentadiene in headspace within 18 hours; cited from earlier work
[7] = Table 1, monocarboxylic weak acids
[8] = Table 2, most preferred weak acids

Structure (SMILES) | GCMS Peak area [1] | Pka [2, 7] | further results
C=CC=CC(=O)O [2,4-Pentadienoic acid] | 107 | 4.72 | Pka [2, 8]: 4.72
CCCCCCCC=CC(=O)O [2-Decenoic acid] | 0 | 3.9018 | –
O=C(O)C=Cc1ccccc1O [2-Hydroxy-cinnamic acid] | 0 | 4.7 | –
CCCCCCC=CC(=O)O [2-Nonenoic acid] | 0 | 3.9148 | –
O=C(O)C=Cc1cccs1 [3-(2-Thienyl)acrylic acid] | 20571 | 4.2 | Pka [2, 8]: 4.2
O=C(O)C=Cc1ccsc1 [3-(3-Thienyl)acrylic acid] | 1586 | 4.1 | Pka [2, 8]: 4.1
O=C(O)C=Cc1ccoc1 [3-Furan-acrylic acid] | 2165 | 3.9 | Pka [2, 8]: 3.9
O=C(O)C=Cc1cccc(O)c1 [3-Hydroxy-cinnamic acid] | 0 | 4.6 | –
O=C(O)C=Cc1ccc(F)cc1 [4-Fluoro-cinnamic acid] | 18699 | – | concentration range showing good selection for PAD1-containing yeasts [3]: 0.15 to 0.225 mM
Cc1ccc(C=CC(=O)O)cc1 [4-Methyl-cinnamic acid] | 11013 | – | concentration range showing good selection for PAD1-containing yeasts [3]: 0.075 to 0.11 mM; growth of PAD1-containing yeast cells on agar [4]: formed large colonies; growth of Δ pad1 yeast on agar [5]: barely perceptible
C=CCCCC(=O)O [5-Hexenoic acid] | 0 | 4.81 | –
O=C(O)/C=C/c1ccc(O)c(O)c1 [Caffeic acid] | 0 | 4.7 | –
C/C=C/C(=O)O [Crotonic acid] | 0 | 4.17 | –
COc1cc(/C=C/C(=O)O)ccc1O [Ferulic acid] | 0 | 4.58 | –
CC(C)=CCC/C(C)=C/C(=O)O [Geranic acid] | 0 | 4.7211 | –
CCCCCCC(=O)O [Heptanoic acid] | 0 | 4.8 | –

Structure (SMILES) | GCMS Peak area [1] | Pka [2, 7] | further results
C/C=C/C=C/C(=O)O [Sorbic acid] | 8795 | – | removal of weak acid by decarboxylase [6]: completely removed
O=C(O)/C=C/c1c[nH]cn1 [Urocanic acid] | 0 | – | –
CCCCC(=O)O [Valeric acid] | 0 | – | –
O=C(O)C(F)=Cc1ccccc1 [alpha-fluoro-cinnamic acid] | 2659 | 4.45 | Pka [2, 8]: 4.45
CC(=Cc1ccccc1)C(=O)O [alpha-methyl-cinnamic acid] | 889 | 4.45 | Pka [2, 8]: 4.45
O=C(O)C(=Cc1ccccc1)c1ccccc1 [alpha-phenyl-cinnamic acid] | 0 | – | –
CC/C=C\CC(=O)O [cis-3-Hexenoic acid] | 0 | 4.608 | –
C=CCC/C=C/C(=O)O [trans, trans-2,6-Heptadienoic acid] | 0 | 3.7528 | –
O=C(O)/C=C/c1ccc(Cl)cc1Cl [trans-2,4-Dichloro-cinnamic acid] | 4428 | – | –
CCCC/C=C/C(=O)O [trans-2-Heptenoic acid] | 0 | 3.7839 | –
CCC/C=C/C(=O)O [trans-2-Hexenoic acid] | 0 | 3.8306 | –
CCCCC/C=C/C(=O)O [trans-2-Octenoic acid] | 0 | 3.902 | –
CC/C=C/C(=O)O [trans-2-Pentenoic acid] | 0 | 4.1578 | –
CC/C=C/CC(=O)O [trans-3-Hexenoic acid] | 0 | 4.608 | –
C/C=C/CCC(=O)O [trans-4-Hexenoic acid] | 0 | 4.6984 | –
O=C(O)C/C=C/c1ccccc1 [trans-Styrylacetic acid] | 0 | 4.688 | –

— patent US20090092975A1, “SELECTABLE MARKER” (Mologic Ltd, priority 2005, published 2009)
